Where a name gives a salt, the structure may show the parent alone.
Key:
[1] = test system: cultured human mast cells (CHMC); assay: CHMC low cell density ionomycin activation: tryptase assay; format: cell-based
[2] = test system: cultured human mast cells (CHMC); assay: CHMC low cell density IgE activation: tryptase assay; format: cell-based; settings: anti-IgE
Procedure, shortened: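 Cells pelleted, taken up in warm MT, plated at 1000-1500/well, held 1 hr 37° C. Anti-IgE added, 30 min 37° C. Plates spun; supernatant mixed with tryptase substrate, 30 min RT.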

Compound	IC50 [1] [µM]	IC50 [2] [µM]	IC50 ([2]; Dihydrochloride Salt) [µM]	IC50 ([1]; Homo sapiens, Mast cell) [µM]	IC50 ([2]; Homo sapiens, Mast cell) [µM]
C=CCNC(=O)Nc1c(Nc2ccc(OCC(=O)OCC)cc2)nc(Nc2ccc(OCC(=O)OCC)cc2)nc1C(=O)OCC [R926585]	> 10	> 10	–	–	–
Oc1cccc(Nc2nc(Nc3ccc(OCC4=NCCCN4)cc3)ncc2F)c1 [R945169, 5-Fluoro-N4-(3-hydroxyphenyl)-N2-[4-(1,4,5,6-tetrahydro-2-pyrimidyl)methyleneoxyphenyl]-2,4-pyrimidinediamine]	> 10	10	–	–	–
COC(=O)C1Cc2cc(Nc3ncc(F)c(Nc4cccc(C(F)(F)F)c4)n3)ccc2O1 (racemic) [R927028, (±)-N2-(2,3-Dihydro-2-methoxycarbonylbenzofuran-5-yl)-5-fluoro-N4-(3-trifluorophenyl)-2,4-pyrimidinediamine]	> 10	0.208	–	–	–
N2-[3-(N-2-Aminoethylamino)carbonylmethylene aminophenyl]-5-fluoro-N4-[3-(2-hydroxyethylenoxy)phenyl]-2,4-pyrimidinediamine [R950232]	> 10	10	–	–	–
CNC(=O)COc1cccc(Nc2ncc(F)c(Nc3ccc(OC(F)(F)F)cc3)n2)c1 [R926879, 5-Fluoro-N2-[3-(N-methylamino)carbonylmethyleneoxyphenyl]-N4-[4-trifluoromethoxyphenyl]-2,4-pyrimidinediamine]	> 10	0.397	–	–	–
Cc1ccc(Nc2nc(Cl)ncc2F)cc1C(F)(F)F [Compound R926920]	> 10	> 10	–	–	–
CNC(=O)COc1cccc(Nc2ncc(F)c(Nc3ccc4c(c3)N(C)C(=O)CO4)n2)c1 [R909260, 5-Fluoro-N2-[3-(N-methylaminocarbonylmethyleneoxy)phenyl]-N4-[6-(N-methyl-1,4-benzoxazin-3-onyl)]pyrimidinediamine]	> 10	1.04	–	–	–
CN(C)C(=O)c1cc2cc(Nc3ncc(F)c(Nc4cccc(O)c4)n3)ccc2o1 [R926718, 5-Fluoro-N4-(3-hydroxyphenyl)-N2-[2-(N-dimethylamino)carbonylbenzofuran-5-yl]-2,4-pyrimidinediamine]	> 10	1.83	–	–	–
CCOC(=O)C(C)(Oc1cccc(Nc2nc(Nc3ccc(OC(C)C)cc3)ncc2F)c1)C(=O)OCC [R935187, N4-[3-(1-Bis(ethoxycarbonyl)ethoxy)phenyl]-5-fluoro-N2-[4-isopropoxyphenyl)-2,4-pyrimidinediamine]	> 10	9.06	–	–	–
CC(C)(C)c1ccc(Nc2nc(Nc3cccc(OCCO)c3)ncc2F)cc1 [R926728]	> 10	0.482	–	–	–
CNC(=O)COc1cccc(Nc2nc(Nc3ccc(OCCN(C)C)cc3)ncc2F)c1 [R909253, N2-[4-(2-N,N-Dimethylaminoethyl)oxyphenyl]-5-fluoro-N4-[3-(N-methylamino)carbonylmethyleneoxyphenyl]-2,4-pyrimidinediamine]	> 10	7.96	–	–	–
O=C1CN=C2COc3ccc(Nc4nc(Nc5cccc(O)c5)ncc4F)cc3N12 [R945236, N4-[2,4-Dihydro-1-oxo-4H-imidazo[2,1-c][1,4]benzoxazin-8-yl]-5-fluoro-N2-(3-hydroxyphenyl)-2,4-pyrimidinediamine]	> 10	0.562	–	–	–
O=C(CNc1cccc(Nc2ncc(F)c(Nc3cccc(O)c3)n2)c1)NCCN1CCOCC1 [R950226]	> 10	1.37	–	–	–
CCOC(=O)CNc1cccc(Nc2ncc(F)c(Nc3cccc(O)c3)n2)c1 [R950215, N2-(Ethoxycarbonylmethyleneaminophenyl)-5-fluoro-N4-(3-hydroxyphenyl)-2,4-pyrimidinediamine]	> 10	0.409	–	–	–
COc1ccc(Nc2ncc([N+](=O)[O-])c(Nc3ccc(OC)c(OC)c3)n2)cc1OC [R940089, N2,N4-Bis-(3,4-dimethoxyphenyl)-5-nitro-2,4-pyrimidinediamine]	–	–	–	> 10	> 10
CC1(C)Oc2ccc(Nc3nc(Cl)ncc3F)cc2NC1=O [Compound R940322]	> 10	> 10	–	–	–
CC(C)Oc1ccc(Nc2ncc(F)c(Nc3ccc4c(cnn4C)c3)n2)cc1 [R935203, 5-Fluoro-N2-(4-isopropoxyphenyl)-N4-(1-methyl-indazoline-5-yl)-2,4-pyrimidinediamine]	> 10	0.562	–	–	–
COC(=O)Cn1ncc2ccc(Nc3ncc(F)c(Nc4ccc5cnn(CC(=O)OC)c5c4)n3)cc21 [R935205, N2,N4-Bis[1-(methoxycarbonyl)methyl-indazoline-6-yl]-5-fluoro-2,4-pyrimidinediamine]	> 10	2.96	–	–	–
COC(=O)Cn1ncc2cc(Nc3nc(Nc4ccc5c(c4)OCCO5)ncc3F)ccc21 [R935249, N2-(3,4-Ethylenedioxyphenyl)-5-fluoro-N4-[1-(methoxycarbonyl)methyl-indazoline-5-yl]-2,4-pyrimidinediamine]	> 10	1.1	–	–	–

Further lines, results first:

IC50 [1] [µM]	IC50 [2] [µM]	IC50 ([2]; Dihydrochloride Salt) [µM]	IC50 ([1]; Homo sapiens, Mast cell) [µM]	IC50 ([2]; Homo sapiens, Mast cell) [µM]	Compound
8.01	2	–	–	–	CCOC(=O)COc1cccc(Nc2ncc(F)c(Nc3ccc4c(c3)C(OC)CCO4)n2)c1 (centres unmarked) [R950294, N4-(4-Methoxy-3,4-dihydro-2H-1-benzopyran-6-yl)-5-fluoro-N2-[3-ethoxycarbonylmethyleneoxyphenyl]-2,4-pyrimidinediamine]
> 10	> 10	–	–	–	CCOC(=O)c1cnc(Nc2ccc3c(c2)NC(=O)CO3)nc1Nc1ccc2c(c1)NC(=O)CO2 [R926325, N2,N4-Bis[6-(1,4-benzoxazine-3-onyl)]-5-ethoxycarbonyl-2,4-pyrimidinediamine]
> 10	1.18	–	–	–	CNC(=O)c1cc2cccc(Nc3ncc(F)c(Nc4ccc5c(c4)OCCO5)n3)c2[nH]1 [R926815]
> 10	10	–	–	–	CNC(=O)COc1cccc(Nc2ncc(F)c(Nc3ccc(OC)c(C(=O)OC)c3)n2)c1 [R940300, 5-Fluoro-N2-[3-(methylaminocarbonylmethyleneoxy)phenyl]-N4-(3-methyloxycarbonyl-4-methoxyphenyl)-2,4-pyrimidinediamine]
> 10	1.35	–	–	–	CNC(=O)COc1cccc(Nc2ncc(F)c(Nc3cccc(C(=O)c4ccccc4)c3)n2)c1 [R950372, N4-(3-Phenylcarbonylphenyl)-5-fluoro-N2-[3-(N-methylamino)carbonylmethyleneoxyphenyl]-2,4-pyrimidinediamine]
> 10	> 10	–	–	–	CCOC(=O)c1cnc(Nc2ccc(OCC(=O)NCC3CC3)cc2)nc1Nc1cccc(O)c1 [R925838, N2-[4-(N-Cyclopropylmethylamino)carbonylmethyleneoxyphenyl]-5-ethoxycarbonyl-N4-(3-hydroxyphenyl)-2,4-pyrimidinediamine]
> 10	0.93	–	–	–	CNC(=O)COc1cccc(Nc2ncc(F)c(Nc3ccc4c(c3)OCC(=O)N4C)n2)c1 [R909261]
> 10	4.2	–	–	–	N#Cc1cnc(Nc2ccc(OCC(=O)N3CCCCC3)cc2)nc1Nc1ccc(OCC(=O)N2CCCCC2)cc1 [R925855, N2,N4-Bis[4-(N-piperidino)carbonylmethyleneoxyphenyl]-5-cyano-2,4-pyrimidinediamine]
> 10	2.23	–	–	–	CCOC(=O)COc1cccc(Nc2ncc(C(=O)OCC)c(Nc3ccc4c(c3)OCCO4)n2)c1 [R926797, N4-(3,4-Ethylenedioxyphenyl)-N2-(3-ethoxycarbonylmethyleneoxyphenyl)-5-ethoxycarbonyl-2,4-pyrimidinediamine]
> 10	> 10	–	–	–	N#Cc1cnc(Nc2ccc(OCC(=O)NCC3CC3)cc2)nc1Nc1ccc(OCC(=O)NCC2CC2)cc1 [R925859, N2,N4-Bis[4-(N-cyclopropylmethylamino)carbonylmethyleneoxyphenyl]-5-cyano-2,4-pyrimidinediamine]
> 10	0.554	–	–	–	Cn1ncc2cc(Nc3nc(Nc4cccc(O)c4)ncc3F)ccc21 [R935204, 5-Fluoro-N2-(3-hydroxyphenyl)-N4-(1-methyl-indazoline-5-yl)-2,4-pyrimidinediamine]
> 10	> 10	–	–	–	CCOC(=O)COc1cccc(Nc2ncc(C(=O)OCC)c(Nc3ccc4c(c3)OC(F)(F)C(F)(F)O4)n2)c1 [R926799, N2-(3-Ethoxycarbonylmethyleneoxyphenyl)-5-ethoxycarbonyl-N4-(3,4-tetrafluoroethylenedioxyphenyl)-2,4-pyrimidinediamine]
> 10	0.697	–	–	–	O=[N+]([O-])c1cccc(Nc2nc(Nc3ccc4c(c3)NCCO4)ncc2F)c1 [R950253]
> 10	–	1.07	–	–	Oc1cccc(Nc2nc(Nc3ccc4oc(CN5CCNCC5)cc4c3)ncc2F)c1 [R926769, 5-Fluoro-N4-(3-hydroxyphenyl)-N2-[2-(N-piperazinomethylene)benzofuran-5-yl]-2,4-pyrimidinediamine Dihydrochloride Salt]
7.5	1.5	–	–	–	COC(=O)C(C)Oc1ccc(Nc2ccnc(Nc3ccc(OC(C)C(=O)OC)cc3)n2)cc1 (racemic) [R926257, (±)-N2,N4-Bis[4-methoxycarbonyhalpha-methypmethyleneoxyphenyl]-2,4-pyrimidinediamine]
> 10	1.52	–	–	–	O=C(COc1cccc(Nc2ncc(F)c(Nc3ccc4c(c3)OCCO4)n2)c1)N1CCOCC1 [R926484, N4-(3,4-Ethylenedioxyphenyl)-5-fluoro-N2-[3-(N-morpholino)carbonylmethyleneoxyphenyl]-2,4-pyrimidinediamine]
1.03	0.526	–	–	–	COC(=O)COc1ccc(Nc2ncc(F)c(Nc3ccc4c(cnn4C)c3)n2)cc1 [R935209, 5-Fluoro-N2-[4-(methoxycarbonylmethyleneoxy)phenyl]-N4-(1-methyl-indazoline-5-yl)-2,4-pyrimidinediamine]
8.15	3.69	–	–	–	CCOC(=O)COc1cccc(Nc2ncc(F)c(Nc3ccc(O)c(C(=O)OC)c3)n2)c1 [R950293, N4-(3-Methoxycarbonyl-4-hydroxyphenyl)-5-fluoro-N2-[3-ethoxycarbonylmethyleneoxyphenyl]-2,4-pyrimidinediamine]

From US9499493B2, “2,4-pyrimidinediamine compounds and their uses” (Rigel Pharmaceuticals, Inc., priority 2002, dated 2016)
